Reference: US20240343681A1, “MOLECULES HAVING PESTICIDAL UTILITY AND INTERMEDIATES AND PROCESSES RELATED THERETO” (priority 2021, published 2024)

Assays:
[1] = test system: Beet Armyworm (Spodoptera exigua, LAPHEG) second instar larva; assay: Bioassay on beet armyworm (BAW), 128-well diet tray assay; type: in vivo; details: 50 μg/cm^2 on artificial diet, 25° C., five days
Procedure, shortened: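 Test molecule in 90:10 acetone–water applied at 50 μg/cm^2 onto 1 mL artificial diet and dried; one second-instar larva per well, eight wells. Held 5 days at 25 °C, 14:10 light–dark; percent mortality averaged over the eight wells.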

[2] = test system: Yellow Fever Mosquito (Aedes aegypti, AEDSAE) larvae; assay: Bioassay on yellow fever mosquito (YFM), 96-well plate larval assay; type: in vivo; details: 4000 ppm (master plate solution), about 1 day-old larvae, 3 days
Experimental: Example B: Bioassays on Yellow Fever Mosquito (Aedes aegypti, AEDSAE) (“YFM”)
Master plates containing 400 μg of a molecule dissolved in 100 μL of dimethyl sulfoxide (DMSO) (equivalent to a 4000 ppm solution) are used. A master plate of assembled molecules contains 15 μL per well. To this plate, 135 μL of a 90:10 water/acetone mixture is added to each well. A robot (Biomek® NXP Laboratory Automation Workstation) is programmed to dispense 15 μL aspirations from the master plate into an empty 96-well shallow plate (“daughter” plate). There are 6 reps (“daughter” plates) created per master. The created “daughter” plates are then immediately infested with YFM larvae.
The day before plates are to be treated, mosquito eggs are placed in Millipore water containing liver powder to begin hatching (4 g into 400 mL). After the “daughter” plates are created using the robot, they are infested with 220 μL of the liver powder/larval mosquito mixture (about 1 day-old larvae). After plates are infested with mosquito larvae, a non-evaporative lid is used to cover the plate to reduce drying. Plates are held at room temperature for 3 days prior to grading. After 3 days, each well is observed and scored based on mortality.

Compound	activity against BAW (percent mortality, averaged over eight wells) [1]	activity against YFM (scored based on mortality) [2]
O=C(CCC(F)(F)F)Nc1cc(NC(=O)[C@H]2[C@H](c3cc(Cl)cc(Cl)c3)C2(Cl)Cl)ccc1Cl (racemic) [F7, trans-rac-2,2-dichloro-N-(4-chloro-3-(4,4,4-trifluorobutanamido)phenyl)-3-(3,5-dichlorophenyl)cyclopropane-1-carboxamide]	exhibited activity	exhibited activity
O=C(Nc1cc(NC(=O)[C@H]2[C@H](c3cc(Cl)cc(Cl)c3)C2(Cl)Cl)ccc1Cl)c1c(F)cccc1F (racemic) [F25, trans-rac-N-(2-Chloro-5-(2,2-dichloro-3-(3,5-dichlorophenyl)cyclopropane-1-carboxamido)phenyl)-2,6-difluorobenzamide]	exhibited activity	exhibited activity
O=C(Nc1cc(NC(=O)[C@H]2[C@H](c3cc(Cl)cc(Cl)c3)C2(Cl)Cl)ccc1Cl)c1ccno1 (racemic) [F35, trans-rac-N-(2-Chloro-5-(2,2-dichloro-3-(3,5-dichlorophenyl)cyclopropane-1-carboxamido)phenyl)isoxazole-5-carboxamide]	exhibited activity	exhibited activity
COCC(=O)Nc1cc(NC(=O)[C@H]2[C@H](c3cc(Cl)cc(Cl)c3)C2(Cl)Cl)ccc1Cl (racemic) [F39, trans-rac-2,2-Dichloro-N-(4-chloro-3-(2-methoxyacetamido)phenyl)-3-(3,5-dichlorophenyl)cyclopropane-1-carboxamide]	exhibited activity	exhibited activity
CCOC(C)C(=O)Nc1cc(NC(=O)C2C(c3cc(Cl)cc(Cl)c3)C2(Cl)Cl)ccc1Cl (racemic) [F40, trans-rac-2,2-dichloro-N-(4-chloro-3-(2-ethoxypropanamido)phenyl)-3-(3,5-dichlorophenyl)cyclopropane-1-carboxamide]	exhibited activity	exhibited activity
N#CCC(=O)Nc1cc(NC(=O)[C@H]2[C@H](c3cc(Cl)cc(Cl)c3)C2(Cl)Cl)ccc1Cl (racemic) [F42, trans-rac-2,2-Dichloro-N-(4-chloro-3-(2-cyanoacetamido)phenyl)-3-(3,5-dichlorophenyl)cyclopropanecarboxamide]	exhibited activity	exhibited activity
O=C(Cc1ccccc1)Nc1cc(NC(=O)[C@H]2[C@H](c3cc(Cl)cc(Cl)c3)C2(Cl)Cl)ccc1Cl (racemic) [F48, trans-rac-2,2-Dichloro-N-(4-chloro-3-(2-phenylacetamido)phenyl)-3-(3,5-dichlorophenyl)cyclopropane-1-carboxamide]	exhibited activity	exhibited activity
O=C(CN1CCOCC1)Nc1cc(NC(=O)[C@H]2[C@H](c3cc(Cl)cc(Cl)c3)C2(Cl)Cl)ccc1Cl (racemic) [F50, trans-rac-2,2-Dichloro-N-(4-chloro-3-(2-morpholinoacetamido)phenyl)-3-(3,5-dichlorophenyl)cyclopropane-1-carboxamide]	exhibited activity	exhibited activity
O=C(Nc1ccc(Cl)c(NC(=O)C(F)(F)F)c1)[C@H]1[C@H](c2cc(Cl)cc(Cl)c2)C1(Cl)Cl (racemic) [F53, trans-rac-2,2-dichloro-N-(4-chloro-3-(2,2,2-trifluoroacetamido)phenyl)-3-(3,5-dichlorophenyl)cyclopropane-1-carboxamide]	exhibited activity	exhibited activity
O=C(Nc1ccc(Cl)c(NC(=O)C(F)(F)Cl)c1)[C@H]1[C@H](c2cc(Cl)cc(Cl)c2)C1(Cl)Cl (racemic) [F54, trans-rac-2,2-Dichloro-N-(4-chloro-3-(2-chloro-2,2-difluoroacetamido)phenyl)-3-(3,5-dichlorophenyl)cyclopropane-1-carboxamide]	exhibited activity	exhibited activity
O=C(Nc1ccc(Cl)c(NC(=O)C(F)(F)C(F)(F)C(F)(F)F)c1)[C@H]1[C@H](c2cc(Cl)cc(Cl)c2)C1(Cl)Cl (racemic) [F56, trans-rac-2,2-Dichloro-N-(4-chloro-3-(2,2,3,3,4,4,4-heptafluorobutanamido)phenyl)-3-(3,5-dichlorophenyl)cyclopropane-1-carboxamide]	exhibited activity	exhibited activity
CCC(F)(F)C(=O)Nc1cc(NC(=O)[C@H]2[C@H](c3cc(Cl)cc(Cl)c3)C2(Cl)Cl)ccc1Cl (racemic) [F58, trans-rac-2,2-Dichloro-N-(4-chloro-3-(2,2-difluorobutanamido)phenyl)-3-(3,5-dichlorophenyl)cyclopropane-1-carboxamide]	exhibited activity	exhibited activity
Cc1cc(C#N)ccc1C(=O)Nc1cc(NC(=O)[C@H]2[C@H](c3cc(Cl)cc(Cl)c3)C2(Cl)Cl)ccc1F (racemic) [F60, trans-rac-4-Cyano-N-(5-(2,2-dichloro-3-(3,5-dichlorophenyl)cyclopropane-1-carboxamido)-2-fluorophenyl)-2-methylbenzamide]	exhibited activity	exhibited activity
O=C(Nc1cc(NC(=O)[C@H]2[C@H](c3cc(Cl)cc(Cl)c3)C2(Cl)Cl)ccc1F)c1c(F)cccc1F (racemic) [F61, trans-rac-N-(5-(2,2-Dichloro-3-(3,5-dichlorophenyl)cyclopropane-1-carboxamido)-2-fluorophenyl)-2,6-difluorobenzamide]	exhibited activity	exhibited activity
O=C(Nc1cc(NC(=O)[C@H]2[C@H](c3cc(Cl)cc(Cl)c3)C2(Cl)Cl)ccc1F)c1cc(F)cc(F)c1 (racemic) [F62, trans-rac-N-(5-(2,2-Dichloro-3-(3,5-dichlorophenyl)cyclopropane-1-carboxamido)-2-fluorophenyl)-3,5-difluorobenzamide]	exhibited activity	exhibited activity
CC(CC(=O)Nc1cc(NC(=O)C2C(c3cc(Cl)cc(Cl)c3)C2(Cl)Cl)ccc1F)C(F)(F)F (racemic) [F64, trans-rac-2,2-Dichloro-3-(3,5-dichlorophenyl)-N-(4-fluoro-3-(4,4,4-trifluoro-3-methylbutanamido)phenyl)cyclopropane-1-carboxamide]	exhibited activity	exhibited activity
O=C(Nc1cc(NC(=O)[C@H]2[C@H](c3cc(Cl)cc(Cl)c3)C2(Cl)Cl)ccc1Cl)c1ccc(F)c(F)c1 (racemic) [F67, trans-rac-N-(2-Chloro-5-(2,2-dichloro-3-(3,5-dichlorophenyl)cyclopropane-1-carboxamido)phenyl)-3,4-difluorobenzamide]	exhibited activity	exhibited activity
O=C(Nc1cc(NC(=O)[C@H]2[C@H](c3cc(Cl)cc(Cl)c3)C2(Cl)Cl)ccc1Cl)c1cccc(F)c1F (racemic) [F68, trans-rac-N-(2-Chloro-5-(2,2-dichloro-3-(3,5-dichlorophenyl)cyclopropane-1-carboxamido)phenyl)-2,3-difluorobenzamide]	exhibited activity	exhibited activity
O=C(Nc1cc(NC(=O)[C@H]2[C@H](c3cc(Cl)cc(Cl)c3)C2(Cl)Cl)ccc1Cl)c1cc(F)ccc1F (racemic) [F69, trans-rac-N-(2-Chloro-5-(2,2-dichloro-3-(3,5-dichlorophenyl)cyclopropane-1-carboxamido)phenyl)-2,5-difluorobenzamide]	exhibited activity	exhibited activity
N#Cc1ccc(C(=O)Nc2cc(NC(=O)[C@H]3[C@H](c4cc(Cl)cc(Cl)c4)C3(Cl)Cl)ccc2Cl)cc1 (racemic) [F70, trans-rac-N-(2-Chloro-5-(2,2-dichloro-3-(3,5-dichlorophenyl)cyclopropane-1-carboxamido)phenyl)-4-cyanobenzamide]	exhibited activity	exhibited activity
N#Cc1ccc(C(=O)Nc2cc(NC(=O)[C@H]3[C@H](c4cc(Cl)cc(Cl)c4)C3(Cl)Cl)ccc2Cl)c(F)c1 (racemic) [F71, trans-rac-N-(2-Chloro-5-(2,2-dichloro-3-(3,5-dichlorophenyl)cyclopropane-1-carboxamido)phenyl)-4-cyano-2-fluorobenzamide]	exhibited activity	exhibited activity
